Data on one substance can be found in US11497210B2, “Compositions and methods for long lasting disinfection” (RHODIA OPERATIONS, priority 2018, dated 2022).

The test system of test [1] is Enterobacter aerogenes. Kind of test: RSS-12 h residual self-sanitizing test (modified EPA Protocol #01-1A, 3 wear cycles). Type of test: cell-based. Particulars: 150 microliters. As to the method:
In order to substantiate 24 hour long-term sanitization claims with the United States Environmental Protection Agency (EPA), compositions are evaluated with the residual self-sanitization (RSS) method, EPA Protocol #01-1A (https://www.epa.gov/sites/production/files/2015-09/documents/cloroxpcol_final.pdf). For validating longer term disinfection, all extant test protocols emulate the maximum amount of recontamination and abrasion by touching and wiping anticipated before reapplication, typically a 24 hour period. An intermediate protocol with approximately half the level abrasion and re-soiling challenge to a surface is presented here as the “RSS-12 h” test protocol.
Long lasting disinfection claims are substantiated by the RSS test, which challenges the applied composition by subjecting it to recontamination (re-inoculation with microorganisms) and abrasion (wear cycles). An intermediate test protocol, with approximately half the number of re-inoculations and wear cycles (“RSS-12 h”) is used to predict disinfection that is durable up to 12 hours before reapplication of the test product. As outlined in FIG. 1, this procedure requires preparation of the test bacterial (microbial) culture over the first week (see EPA Protocol #01-1A) followed by testing in week 2.
The testing involves inoculating the surface with bacteria, followed by application of the product on the substrate and allowing it to dry. The substrate may be glass, polycarbonate, or steel. This substrate is then subjected to an abrasion—re-inoculation regime of 3 “wear cycles”. The abrasion is conducted with a 1084 gwt. rectangular steel block covered with a cloth with an underlying thin polyurethane-foam layer. Each wear cycle is composed of a “dry” abrasion and a “wet” abrasion, the latter with the cloth cover having been wet with a mist of water using a Preval® sprayer. Each abrasion (dry/wet) is characterized by a back and forth motion of the block across the test substrate. Each abrasion cycle is followed by re-inoculation the surface with a bacterial culture. The RSS-12 h involves a 3-abrasion cycle/3-inoculations test as compared to the full RSS test that outlines a 6-abrasion cycle/6-inoculation test regimen. All other details of the test method are as outlined in the EPA Protocol #01-1A.
The test substrate is allowed to dry overnight and then finally inoculated again (sanitizer test) for 5 minutes, followed by neutralization of the entire substrate. Surviving bacteria is then harvested off the surface and cultured with serial dilutions on agar plates, allowing colony formation over 24-48 hours. Surviving bacteria are then counted as the number of colonies. […] The bacteria in this test may be substituted for other microorganisms such as fungi or viruses. In an embodiment, microorganisms are selected from gram-positive bacteria (e.g Staphylococcus aureus), gram-negative bacteria (e.g. Enterobacter aerogenes), fungi, enveloped viruses, non-enveloped viruses, and combinations thereof.
Films prepared from Formula C were evaluated using RSS-12 h protocol as described above, a modified version the residual self-sanitization (RSS) method, EPA Protocol #01-1A. Protocol #01-1A is a method approved by the EPA for measuring long-term sanitization claims (i.e., “kill later” durability claim). Protocol #01-1A, the entire contents of which are incorporated by reference, measures the residual self-sanitizing activity of dried chemical residues (films) on inanimate, hard, non-porous surfaces against bacteria: Staphylococcus aureus, Klebsiella pneumoniae, and/or Enterobacter aerogenes. In particular, surfaces are inoculated, treated with test product, allowed to dry, then abraded under alternating wet and dry conditions, which are interspersed with several re-inoculations. (FIG. 1).
The test shown in Table 3 was conducted on a steel substrate (1 inch×1 inch) with Enterobacter aerogenes, a gram negative bacteria which is typically more resistant. […]

The test system of test [2] is Enterobacter aerogenes. Kind of test: RSS-24, EPA Protocol #01-1A residual self-sanitizing activity test (6 abrasion cycles). In kind it is cell-based. To be noted: Table 5, 150 microliters, stainless steel. As to the method:
In order to substantiate 24 hour long-term sanitization claims with the United States Environmental Protection Agency (EPA), compositions are evaluated with the residual self-sanitization (RSS) method, EPA Protocol #01-1A (https://www.epa.gov/sites/production/files/2015-09/documents/cloroxpcol_final.pdf). For validating longer term disinfection, all extant test protocols emulate the maximum amount of recontamination and abrasion by touching and wiping anticipated before reapplication, typically a 24 hour period. An intermediate protocol with approximately half the level abrasion and re-soiling challenge to a surface is presented here as the “RSS-12 h” test protocol. […]
The test substrate is allowed to dry overnight and then finally inoculated again (sanitizer test) for 5 minutes, followed by neutralization of the entire substrate. […] Surviving bacteria are then counted as the number of colonies. […]
Formula C was then further evaluated by (EPA) Protocol #01-1A residual self-sanitizing activity test with 6 alternating abrasion cycles (wet and dry each) for a 24 hour claim. […] When evaluated with 150 microliters of Formula C on a (1×1) steel substrate with Enterobacter aerogenes, >3 LR were achieved as required by the test (Table 5), indicating a pass for RSS-24.

[3] abbreviates: Table 4, reduced quat content, stainless steel.

As to Triton X-100, the Log came to 6.48 in test [1] (Table 3, log of surviving cfu, stainless steel); 6.11 in test [1] (setting [3]); 7.27 in test [2]. In addition, the Avg. cfu/carrier in test [1] (Table 3, stainless steel) is 3.00E+06 cfu/carrier; in test [1] (setting [3]), 1.29E+06 cfu/carrier; in test [2], 1.85E+07 cfu/carrier. The geom. mean in test [1] (Table 3, stainless steel) worked out at 6.48. The avg. cfu/surface in test [1] (stainless steel 1 inch x 1 inch, surviving population after final inoculation, triplicate) stood at 3.00E+06 cfu/surface.
